Assay results: ChEMBL document CHEMBL6114985, “From Dyrk1A inhibitors to a novel class of antiviral agents: Targeting Enterovirus EV-A71 with 2-aryl-substituted thiophene scaffolds” (Eur J Med Chem, 2025)
Activity calls are given as the source filed them. The rule behind the calls is not given here.

Experiments:
Enterovirus A71 [1] = test: Antiviral activity against Enterovirus A71 TW/2231/98 infected in human RD cells assessed as effect on viral protein level at 10 uM preincubated with cells at 1 hr followed by compound addition and measured at 0 to 3 hrs post infection by time of addition based immunoblotting analysis; type: functional, organism-based
[2] = Lipophilicity, logD of compound by UPLC-MS analysis; type: physicochemical; conditions: octanol/water
Enterovirus A71 [3] = test: Antiviral activity against Enterovirus A71 TW/2231/98 infected in human RD cells assessed as effect on viral titer at 10 uM preincubated with cells at 1 hr followed by compound addition and measured at 0 to 3 hrs post infection by time of addition based plaque assay; type: functional, organism-based
[4] = Metabolic stability in human liver microsome assessed as half life incubated for 120 mins by HPLC-MS/MS; type: ADME; conditions: liver microsomes
Coxsackievirus = test: Antiviral activity against Coxsackievirus assessed as reduction in viral replication; type: functional, organism-based
[5] = molecular target: T1, Dual specificity tyrosine-phosphorylation-regulated kinase 1A (Homo sapiens, UniProt Q13627); test: Inhibition of DYRK1A (unknown origin)
Herpes Simplexvirus [6] = test: microbe, parasite or virus in culture; conditions: A549
Enterovirus A71 [7] = test: Antiviral activity against Enterovirus A71 TW/2231/98 infected in human RD cells assessed as inhibition of viral plaque formation at 2.5 uM incubated for 3 to 5 days by crystal violet staining based plaque reduction assay relative to control; type: functional; conditions: Enterovirus A, TW/2231/98, RD, time 3-5 day
in vitro = conditions: human, A549 cells
Enterovirus A71 [8] = test: Antiviral activity against Enterovirus A71 TW/2231/98 infected in human RD cells assessed as effect on viral replication incubated for 3 to 5 days by crystal violet staining based plaque reduction assay; type: functional, organism-based; conditions: time 3-5 day
Enterovirus A71 [9] = test: Antiviral activity against Enterovirus A71 TW/2231/98 infected in human RD cells assessed as reduction in cytopathic effect incubated for 3 days; type: functional, organism-based; conditions: Enterovirus A, TW/2231/98, RD, 72 h
[10] = Cytotoxicity against human A549 cells infected with Human adenovirus; type: toxicity, cell-based
[11] = Metabolic stability in mouse liver microsome assessed as intrinsic clearance incubated for 120 mins by HPLC-MS/MS; type: ADME; conditions: liver microsomes, read-out: CLH
Influenza A virus = test: Antiviral activity against influenza A virus assessed as reduction in viral replication; type: functional, organism-based
[12] = Metabolic stability in mouse liver microsome assessed as half life incubated for 120 mins by HPLC-MS/MS; type: ADME; conditions: liver microsomes
[13] = molecular target: T1, Dual specificity tyrosine-phosphorylation-regulated kinase 1A; test: Inhibition of DYRK1A (unknown origin) at 25 uM incubated for 1 hr relative to control
Enterovirus A71 [14] = test: Antiviral activity against Enterovirus A71 TW/2231/98 infected in human RD cells assessed as reduction in viral RNA level at 10 uM preincubated with cells at 1 hr followed by compound addition and measured after 9 hrs post infection by time of addition based RT-qPCR analysis; type: functional, organism-based
Enterovirus A71 [15] = test: Antiviral activity against Enterovirus A71 TW/2231/98 infected in human RD cells assessed as inhibition of viral plaque formation at 5 uM incubated for 3 to 5 days by crystal violet staining based plaque reduction assay relative to control; type: functional; conditions: Enterovirus A, TW/2231/98, RD, time 3-5 day
Enterovirus A71 [16] = test: Antiviral activity against Enterovirus A71 TW/2231/98 infected in human RD cells assessed as reduction in viral protein level at 10 uM preincubated with cells at 1 hr followed by compound addition and measured after 9 hrs post infection by time of addition based immunoblotting analysis; type: functional, organism-based
[17] = Cytotoxicity against human RD cells assessed as reduction in cell growth incubated for 3 days by MTT assay; type: toxicity, cell-based; conditions: time 3 day
Enterovirus A71 [18] = test: Antiviral activity against Enterovirus A71 TW/2231/98 infected in human RD cells assessed as effect on viral RNA level at 10 uM preincubated with cells at 1 hr followed by compound addition and measured at 0 to 3 hrs post infection by time of addition based RT-qPCR analysis; type: functional, organism-based
[19] = Selectivity index, ratio of CC50 for human RD cells to EC50 for antiviral activity against enterovirus A71 TW/2231/98 infected in human RD cells; type: toxicity, cell-based; conditions: read-out: Ratio CC50/EC50
Human rhinovirus sp. = test: Antiviral activity against Human rhinovirus 71803 assessed as reduction in viral replication; type: functional, organism-based
[20] = Stability in human plasma assessed as half life by HPLC-MS/MS; type: ADME, cell-free
enterovirus D68 [21] = test: Antiviral activity against Enterovirus D68 2795 assessed as reduction in viral replication; type: functional, organism-based; conditions: Enterovirus D
Enterovirus A71 [22] = test: Antiviral activity against Enterovirus A71 TW/2231/98 infected in human RD cells assessed as reduction in viral titer at 10 uM preincubated with cells at 1 hr followed by compound addition and measured after 9 hrs post infection by time of addition based plaque assay; type: functional, organism-based
[23] = Metabolic stability in human liver microsome assessed as intrinsic clearance incubated for 120 mins by HPLC-MS/MS; type: ADME; conditions: liver microsomes, read-out: CLH
[24] = Stability in mouse plasma assessed as half life by HPLC-MS/MS; type: ADME, cell-free
[25] = Cytotoxicity against human A549 cells infected with Herpes Simplexvirus; type: toxicity, cell-based; conditions: A549 cells infected with herpes simplex virus
Enterovirus A71 [26] = test: Antiviral activity against Enterovirus A71 2231 assessed as reduction in viral replication; type: functional, organism-based; conditions: Enterovirus A
Enterovirus A71 [27] = test: Antiviral activity against Enterovirus A71 TW/2231/98 infected in human RD cells assessed as inhibition of viral plaque formation at 1.25 uM incubated for 3 to 5 days by crystal violet staining based plaque reduction assay relative to control; type: functional; conditions: Enterovirus A, TW/2231/98, RD, time 3-5 day
Herpes Simplexvirus [28] = test: Antiviral activity against Herpes Simplexvirus infected in human A549 cells assessed as inhibition of viral replication at 0.95 uM relative to control; type: functional
Enterovirus A71 [29] = test: Antiviral activity against Enterovirus A71 4798 assessed as reduction in viral replication; type: functional, organism-based; conditions: Enterovirus A
Human adenovirus sp. = test: microbe, parasite or virus in culture; conditions: A549
enterovirus D68 [30] = test: Antiviral activity against Enterovirus D68 KY 18953 assessed as reduction in viral replication; type: functional, organism-based; conditions: Enterovirus D

Q: With `COc1ccc(F)c(C(=O)Nc2cncc(-c3cc(-c4cccnc4)cs3)c2)c1` as the molecule, how does the Activity (Enterovirus A71 [1]) read?
A: inactive

Q: What about the logD [2] of the same molecule?
A: 3.44

Q: And the Activity (Enterovirus A71 [3])?
A: inactive

Q: What about the half-life [4] of the same molecule?
A: 55 min

Q: And the EC50 (Coxsackievirus)?
A: 2.8 µM

Q: And the IC50 [5]?
A: 0.038 µM

Q: What about the EC50 (Herpes Simplexvirus [6]) of the same molecule?
A: 1 µM

Q: What about the inhibition at 2.5 µM (Enterovirus A71 [7]) of the same molecule?
A: ~60%

Q: What about the selectivity ratio (in vitro) of the same molecule?
A: > 15

Q: What about the Activity (Enterovirus A71 [8]) of the same molecule?
A: Active

Q: What about the EC50 (Enterovirus A71 [9]) of the same molecule?
A: 4.4 µM

Q: And the CC50 [10]?
A: > 10 µM

Q: What about the microsomal CLint [11] of the same molecule?
A: 104 µL/min/mg

Q: And the EC50 (Influenza A virus)?
A: > 10 µM

Q: What about the half-life [12] of the same molecule?
A: 14 min

Q: And the inhibition [13]?
A: 95%

Q: And the Activity (Enterovirus A71 [14])?
A: Active

Q: And the inhibition at 5 µM (Enterovirus A71 [15])?
A: 80%

Q: What about the Activity (Enterovirus A71 [16]) of the same molecule?
A: Active

Q: What about the CC50 at 72 h [17] of the same molecule?
A: 12.8 µM

Q: What about the Activity (Enterovirus A71 [18]) of the same molecule?
A: inactive

Q: What about the selectivity ratio [19] of the same molecule?
A: 2.9

Q: And the EC50 (Human rhinovirus sp.)?
A: 4.2 µM

Q: What about the half-life [20] of the same molecule?
A: > 240 min

Q: What about the EC50 (enterovirus D68 [21]) of the same molecule?
A: 4.7 µM

Q: What about the Activity (Enterovirus A71 [22]) of the same molecule?
A: Active

Q: And the microsomal CLint [23]?
A: 27 µL/min/mg

Q: And the half-life [24]?
A: > 240 min

Q: And the CC50 [25]?
A: > 15 µM

Q: And the EC50 (Enterovirus A71 [26])?
A: 4.4 µM

Q: And the inhibition at 1.25 µM (Enterovirus A71 [27])?
A: 20%

Q: What about the inhibition at 0.95 µM (Herpes Simplexvirus [28]) of the same molecule?
A: 50%

Q: And the EC50 (Enterovirus A71 [29])?
A: 4.2 µM

Q: What about the EC50 (Human adenovirus sp.) of the same molecule?
A: > 10 µM

Q: What about the EC50 (enterovirus D68 [30]) of the same molecule?
A: 3.4 µM
